Experimental data: publication PMC5768343, “A natural inhibitor of kidney-type glutaminase: a withanolide from Physalis pubescens with potent anti-tumor activity” (Oncotarget, 2017)

Key:
[1] = test system: erlotinib-resistant human non-small cell lung cancer cells (HCC827-ER); assay: CCK8 cytotoxicity / proliferation assay, HCC827-ER; assay type: cell-based
Method: The experiment was performed in triplicate.

HCC827-ER = assay: EdU and DAPI double staining, combination with erlotinib; assay type: cell-based, human; settings: 0.5 μM with erlotinib 1, 2, 4, 8 μM
Method: The logarithmic growth phase cells were seeded in 24-well plates at 2 × 10^4 ∼ 5 × 10^5 cells per well. After 4–6 h, the medium was removed, the medium containing no or different concentrations of compound was replaced, and 50 μM of EdU was added. 2 h later, the medium was removed, cells washed by PBS. 200 μL of cell fixative (i.e., PBS containing 4% paraformaldehyde) was added and incubated at room temperature for 30 minutes. The solution was discarded and 200 μL of 2 mg/mL glycine was added to each well. After 5 minutes of incubation, the glycine solution was discarded. Each well washed with 200 μL of PBS, rinse for 5 minutes, and PBS was removed. Apollo staining was added to each well with 200 μL of 1 X Apollo® staining solution. After incubation for 30 minutes at room temperature and decolorization, the reaction solution was discarded. Similarly, 200 μL of 1 × Hoechst 33342 solution was added to each well to dye the total DNA. After 30 minutes of incubation at room temperature and the reaction solution was discarded, and then the images were captured and analyzed by fluorescence microscopy.

SW1990 cells [2] = assay: ROS quantification (DCFDA assay); assay type: cell-based, human; settings: 2.5 or 5 μM, 24 h
Method: DCFDA assay was performed 24 h after interfered with difference concentration of physapubescin K or DMSO. Cells were incubated with 5 μM 2′,7′-dichlorodihydrofluorescein diacetate (DCFDA, KeyGen, Nanjing, China A124) for 30 min. Cells were washed twice with PBS to remove excess DCFDA, and the labeled cells were then collected in PBS. The fluorescent of 2′,7′-dichloro-fluorescein (DCF) was proportionate to ROS generation and was measured by microplate reader.

SW1990 cells [3] = assay: Combination with benserazide, CCK8 viability and CompuSyn combination index; assay type: cell-based, human; settings: combined use with benserazide, ratio less than 1:50, CompuSyn
Excerpt: Tumor cells are speculated to maintain growth and proliferation through a variety of energy metabolism pathways. Therefore, targeting at a single energy metabolism material might not be an effective method for cancer therapy. It has been determined that growing cancer cells were strongly dependent on energy sources such as glucose and glutamine. We supposed that the blocking of both glucose and glutamine metabolism pathways could display a synergistic tumor inhibition. Hexokinase 2 (HK2) was the crucial enzyme controlling the first step of glycolysis, and systemic deletion of HK2 can impair the tumor progression in mouse models. Nowadays, Metformin (Met), 2-Deoxyglucose (2-DG) and 3-Bromopyruvate (3-BrPA) are most commonly reported HK2 inhibitors. […] The combined inhibitory effects of physapubescin K and benserazide on the growth of SW1990 cells were evaluated. […]
Figure 8 Synergy of physapubescin K (PSBK) in combination treatments (A) Cells were cultured for 1 day with or without the indicated doses of PSBK and benserazide, and cell viability was evaluated by CCK8 assay. (B) At the indicated concentration ratio of PSBK: benserazide combinations at different effect levels, ED50, ED75 and ED95 were calculated using the CompuSyn software. […] The proportion of cells in proliferation is counted by manual counting (D).

intracellular KGA = target: T1, intracellular KGA (Homo sapiens, UniProt O94925); assay: Cellular thermal shift assay (CETSA) in intact SW1990 cells; assay type: cell-based; settings: 10 μM, 4 hours, 48°C without compound
T1 construct: endogenous in cells; host or cells: SW1990
T1 sequence (O94925 55-669): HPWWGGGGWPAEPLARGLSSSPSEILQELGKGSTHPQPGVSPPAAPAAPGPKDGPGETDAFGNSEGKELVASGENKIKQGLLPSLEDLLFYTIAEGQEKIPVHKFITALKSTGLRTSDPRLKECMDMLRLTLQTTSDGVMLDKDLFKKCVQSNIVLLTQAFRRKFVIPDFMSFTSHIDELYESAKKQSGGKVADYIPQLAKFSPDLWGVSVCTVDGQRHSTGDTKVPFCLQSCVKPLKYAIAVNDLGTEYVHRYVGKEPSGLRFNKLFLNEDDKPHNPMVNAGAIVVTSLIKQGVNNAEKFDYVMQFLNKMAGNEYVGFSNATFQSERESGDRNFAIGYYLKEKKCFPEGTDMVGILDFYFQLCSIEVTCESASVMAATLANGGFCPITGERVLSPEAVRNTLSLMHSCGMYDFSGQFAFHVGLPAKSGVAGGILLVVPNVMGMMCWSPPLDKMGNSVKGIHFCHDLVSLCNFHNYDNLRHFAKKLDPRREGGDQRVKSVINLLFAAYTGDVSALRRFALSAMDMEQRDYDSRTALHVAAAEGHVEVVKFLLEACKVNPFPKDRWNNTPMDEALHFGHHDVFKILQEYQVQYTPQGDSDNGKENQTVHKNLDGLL
Excerpt: To further investigate the interaction of the compound with KGA, microscale thermophoresis method (MST) was used to assay the binding affinity between physapubescin K and KGA. This technology can quantify protein-protein or protein-small molecule interactions with high sensitivity through detecting fluorescent changes of molecules during thermophoresis. […] However, it was of vital importance to verify whether it could bind with the intracellular KGA. The cellular thermal shift assay (CETSA), which based on the biophysical principle of ligand-induced thermal stabilization of target protein [25], was thus conducted to investigate its affinity with intracellular KGA. […] As shown in Figure 4B and 4C, physapubescin K increased the thermal stability of KGA in intact cells from tolerate temperature of 48°C to temperature of 50°C.
The ability of compounds to interact with, and thereby stabilize the target in intact cells, was analyzed essentially as described by Alshareef A et al.. Briefly, cells cultured in 10-cm tissue culture dishes at about 90% confluence were treated with media containing DMSO or 10 μM physapubescin K for 4 hours. After treatment, cells were detached with cell scraper, collected by centrifugation and subsequently resuspended in PBS. The cell suspension was aliquoted into seven PCR tubes and heated for 3 minutes to 40, 42, 44, 46, 48, 50 or 52°C. […]

CO[C@H]1O[C@@H]([C@@H](C)[C@H]2C[C@H](OC(C)=O)[C@H]3[C@@H]4C[C@H]5O[C@]56[C@@H](O)C=CC(=O)[C@]6(C)[C@H]4CC[C@@]32C)C[C@]2(C)O[C@]12C [physapubescin K]
sensitivity of cell growth to treatment ([1]; HCC827-ER, 1 μM): sensitive | IC50 ([1]; Homo sapiens, HCC827ER, CCK8, 48 h): 0.72 ± 0.22 µM | sensitivity of HCC827-ER to erlotinib (HCC827-ER): significantly increase the sensitivity | intracellular reactive oxygen species (ROS) levels (SW1990 cells [2]): significantly increase | CI value (SW1990 cells [3]): less than 0.8 | thermal stability of KGA, tolerate temperature (intracellular KGA): 50 °C
